Assays:
U251MG xenograft tumors = assay: Subcutaneous U251MG xenograft tumors in CD1 nude mice, systemic treatment; assay type: in vivo
Procedure: All animal work was carried out in accordance with the NIH guidelines Guide for the Care and Use of Laboratory Animals. Six-week-old male athymic CD1 nude mice (Charles River, n=8) were injected subcutaneously with 7.5×10^6 U251MG cells in 100 μl PBS in the right flank using a 30-gauge needle. After 3 weeks, treatment of the xenograft tumors was initiated with 10 μg rhHMGB1 in 500 μl PBS or PBS only (control group) by daily intraperitoneal injections at the contralateral side for 6 weeks. Tumor volume was measured by a calliper using the ellipsoid formula (length×width×height×½) as described (Tomayko and Reynolds, 1989). After 6 weeks of treatment the animals were sacrificed and the paraffin embedded tumor sections were subjected to immunofluorescence analysis as outlined below.
Paraffin embedded slices of mouse tissue or xenograft tumors were dewaxed and dehydrated using xylene and ethanol, followed by heat-induced antigen retrieval using 10 mM citrate buffer, pH 6.0, for 3×5 min in a cooker. The sections were incubated with 1:10 COX IV (Alexa Fluor® 488 conjugate) antibody over night at 4° C., washed with PBS and covered with Vectashield® mounting medium (H-1200, Vector Laboratories Inc., 94010 CA, USA) containing DAPI (1.5 μg/ml).

[1] = system: NCH421 K glioblastoma stem-cell-like cells; assay: Trypan blue vital stain, counting blue cells in a Neubauer chamber; assay type: cell-based; details: 80 nM, 24 h, p<0.05
Procedure: Trypan blue influx into NCH421 K glioblastoma multiforme stem-cell-like cells was […] culture flasks and then incubating them for 10 min with 1:1,000 trypan blue solution. […] Glioblastoma stem-cell-like cell line NCH421K was maintained in BIT (bovine serum albumine, insulin, transferring)-medium (DMEM HAMS F12+1% P/S+1% L-glutamin+10 ml BIT+EGF (20 ng/ml)+BFGF (20 ng/ml)).

U251 MG cells [2] = assay: ROS measurement by DCF fluorescence and FACS analysis; assay type: cell-based, human; details: 40 nM, 24 h (FIG. 3A)
Procedure: For measurement of reactive oxygen species (ROS) and mitochondrial membrane potential (MMP) 1.5×10^6 U251 MG cells were seeded in 6 cm plates, treated with 40 nM rhHMGB1 for 24 h and incubated with the fluorescent DiOC6 (3,3′-dihexyloxacarbocyanine iodide, 40 nmol/ll, Sigma Chemical Co., St. Louis, Mo.) or with the fluorescent H2DCF-DA (dichlorodihydrofluorescein diacetate, 10 μM, Invitrogen) for 1 h at 37° C., respectively. The cells were trypsinized and centrifuged at 2,000 rpm for 5 min at 4° C. The supernatant was discarded and the pellet was washed 2× with sterile Dulbecco's PBS containing 0.1% fetal calf serum on ice and again centrifuged at 2,000 rpm for 5 min at 4° C. The pellet was resuspended in 500 μl sterile Dulbecco's PBS on ice. Oxidation of H2DCF to DCF by ROS and DiOC6 accumulation in mitochondria were measured immediately at FL-1 by flow cytometry using a FACScalibur (Beckton Dickinson, Heidelberg, Germany). Cell cycle was determined by measurement of priopidiumiodide (PI)-uptake of the cells according to standard procedures. Briefly, the cells were harvested and washed twice in sterile Dulbecco's PBS on ice, spun down at 2,000 rpm for 5 min at 4° C. and fixed with 70% ethanol for 30 min at 4° C. Contaminating RNA was eliminated by treatment with 100 μg/ml of RNase A, then 50 μg/ml PI was added and DNA content was measured immediately at FI-2. […]

U251 MG cells [3] = assay: Subcellular fractionation and Western blot: cytochrome c release, caspase 3 cleavage; assay type: cell-based, human; details: rhHMGB1 80 nM, 24 h (FIG. 6)
Procedure: The U251 MG tumor cells were lysed in lysis buffer containing 20 mmol/L Tris-HCl (pH 7.4), 137 mmol/L NaCl, 10% (v/v) glycerine, 1% Triton X-100, 2 mmol/L EDTA, 100 mmol/L phenylmethylsulfonyl fluoride, and protease inhibitors (Complete mini; Roche Molecular Biochemicals). For the detection of phosphoprotein levels, 10 mmol/L NaPPi, 50 mmol/L NaF, and 20 mmol/L NaVO4 were added to the lysis buffer. After 15 min incubation on ice, the lysates were centrifuged at 14,000×g for 10 min. The total protein concentration of the lysates was measured using the Bradford assay (Bio-Rad). Soluble protein (25-100 μg per lane) was separated on 10% to 15% polyacrylamide gels and blotted onto nitrocellulose by standard procedures. The membranes were washed, incubated with primary antibody as indicated: mouse anti-human caspase-3 (1:500, Imgenex, San Diego, Calif.); polyclonal rabbit anti-human phosphorylated p44/42 mitogen-activated protein kinase and polyclonal rabbit anti-human phosphorylated stress-activated protein kinase/JNK (1:1,000, Cell Signaling Technology, Inc.); polyclonal anti-rabbit JNK 54/46 (1:1,000, Cell Signaling Technology, Inc.); polyclonal rabbit anti-human IkBalpha (1:500, Santa Cruz Biotechnology, Inc.); mouse monoclonal anti-human BNIP3 (1:10,000, R&D Systems, Inc.); mouse monoclonal anti-human phosphorylated-histone H2A.X (Upstate, Inc.); mouse monoclonal anti-human cytochrome c (1:100, BD Biosciences Pharmingen GmbH, Heidelberg, Germany); mouse anti-human cytochrome c oxidase complex IV (1:100, Molecular Probes, Invitrogen, Karlsruhe, Germany); polyclonal rabbit antimalondialdehyde (1:250, Calbiochem, Merck, Darmstadt, Germany) and mouse monoclonal antibodies to β-tubulin or β-actin (1:3,000, Sigma Chemical Co., St. Louis, Mo.), washed, and incubated with the appropriate secondary antibody (1:3,000; horseradish peroxidase-conjugated, Bio-Rad). Bound antibodies were visualized using an enhanced chemiluminescence detection system (GE-Healthcare, Uppsala, Sweden).
Enrichment of mitochondrial fractions was performed using the ApoAlert Cell Fractionation Kit (Clontech, Mountain View, Calif.) as described previously (Gdynia et al., 2008). Briefly, after centrifugation and several washing steps, the cell pellet was resuspended in ice-cold 1× Fractionation Buffer Mix containing protease inhibitors (Complete mini; Roche Molecular Biochemicals, Indianapolis, Ind.) and 1 mM 1,4-Dithio-DL-threitol solution (DTT). After 10 min incubation on ice, cells were homogenized with a dounce tissue grinder. Efficiency of homogenization was controlled by microscopy. The homogenate was centrifuged at 700×g for 10 min at 4° C. and the resulting supernatant at 10,000×g for 25 min at 4° C. […]

## rhHMGB1: recombinant human High Mobility Group B1 protein (Sigma Aldrich)
U251MG xenograft tumors; 10 μg daily intraperitoneal, after six weeks (FIG. 1D)
  tumor size versus control group: significantly smaller tumors than the control group
U251MG xenograft tumors; after a 6 week systemic treatment (FIG. 9)
  formation of megamitochondria in xenograft tumor tissue: formation of megamitochondria was also observed
[1]
  trypan blue influx versus control: 7±1 fold increase
U251 MG cells [2]
  generation of radical oxygen species (ROS): strong generation
U251 MG cells [3]
  activation of caspase 3: neither activation of caspase 3
  release of cytochrome c: nor release of cytochrome c was observed

Reference: patent publication US20110123483A1, “HMGB1 FOR CANCER TREATMENT” (DEUTSCHES KREBSFORSCHUNGSZENTRUM, priority 2009, published 2011)
